The record followed here is patent publication US8710233B2 (Gruenenthal GmbH, priority 2005, dated 2014).

One test addresses VR1/TRPV1 receptor (Homo sapiens, UniProt Q8NER1). Description: IC50 (human) after pH stimulus. In kind it is cell-based. The settings on record: for IC50: table 4.
A further test concerns the target T1, vanilloid receptor (VR1) (Homo sapiens, UniProt Q8NER1).
T1 construct: expressed in transfected cells; host or cells: CHO K1 cells (ECACC), stably transfected
The experiment in a line: FLIPR Ca2+ influx assay on CHO K1 cells transfected with the VR1 gene (pharmacological method II). The following applies: table 4; capsaicin; read-out: Ki (human) Cap. In kind it is cell-based. The text has this: In this FLIPR assay, the influx of Ca^2+ is quantified with the assistance of a Ca^2+-sensitive dye (type Fluo-4, Molecular Probes Europe BV, Leiden, Netherlands) in a Fluorescent Imaging Plate Reader (FLIPR, Molecular Devices, Sunnyvale, USA) as described below.
II. Functional Investigations on the Vanilloid Receptor (VR1)
The agonistic or antagonistic action of the substances to be investigated on the vanilloid receptor (VR1) may also be determined with the following assay. According to this assay, the influx of Ca^2+ through the channel is quantified with the assistance of a Ca^2+-sensitive dye (type Fluo-4, Molecular Probes Europe BV, Leiden, Netherlands) in a Fluorescent Imaging Plate Reader (FLIPR, Molecular Devices, Sunnyvale, USA).
Chinese hamster ovary cells (CHO K1 cells, European Collection of Cell Cultures (ECACC), Great Britain) are stably transfected with the VR1 gene. For functional investigations, these cells are plated out onto poly-D-lysine-coated, black 96 well plates with a clear bottom (BD Biosciences, Heidelberg, Germany) at a density of 25,000 cells/well. The cells are incubated overnight at 37° C. and 5% CO2 in a culture medium (Ham's Nutrient Mixture F12, 10 vol. % FCS (foetal calf serum), 18 μg/mL L-proline). On the following day, the cells are incubated with Fluo-4 (Fluo-4 2 μM, Pluronic F127 0.01 vol. %, Molecular Probes in HBSS (Hank's buffered saline solution), Gibco Invitrogen GmbH, Karlsruhe, Germany) for 30 minutes at 37° C. The plates are then washed 3 times with HBSS buffer and, after a further 15 minutes' incubation at room temperature, used for […] measurement in the FLIPR. […] Quantification proceeds by measuring the highest fluorescence intensity (FC, fluorescence counts) over time.
The FLIPR protocol comprises 2 additions of substance. The substances to be tested (10 μM) are firstly pipetted onto the cells and Ca^2+ influx is compared with the control (capsaicin 10 μM) (% activation relative to the Ca^2+ signal after addition of 10 μM of capsaicin). After 5 minutes' incubation, 100 nM of capsaicin are added and the influx of Ca^2+ is again determined.
The percentage inhibition in comparison with the maximum achievable inhibition with 10 μM capsaicin is calculated.

Setting [1] is: @ 1 μM, ne = no effect, read-out: inhibition in percent, IC50 (human) after pH stimulus.
The mark [2] stands for this setting: read-out: inhibition in percent, IC50 (human) after pH stimulus.

T1 sequence (Q8NER1 whole entry): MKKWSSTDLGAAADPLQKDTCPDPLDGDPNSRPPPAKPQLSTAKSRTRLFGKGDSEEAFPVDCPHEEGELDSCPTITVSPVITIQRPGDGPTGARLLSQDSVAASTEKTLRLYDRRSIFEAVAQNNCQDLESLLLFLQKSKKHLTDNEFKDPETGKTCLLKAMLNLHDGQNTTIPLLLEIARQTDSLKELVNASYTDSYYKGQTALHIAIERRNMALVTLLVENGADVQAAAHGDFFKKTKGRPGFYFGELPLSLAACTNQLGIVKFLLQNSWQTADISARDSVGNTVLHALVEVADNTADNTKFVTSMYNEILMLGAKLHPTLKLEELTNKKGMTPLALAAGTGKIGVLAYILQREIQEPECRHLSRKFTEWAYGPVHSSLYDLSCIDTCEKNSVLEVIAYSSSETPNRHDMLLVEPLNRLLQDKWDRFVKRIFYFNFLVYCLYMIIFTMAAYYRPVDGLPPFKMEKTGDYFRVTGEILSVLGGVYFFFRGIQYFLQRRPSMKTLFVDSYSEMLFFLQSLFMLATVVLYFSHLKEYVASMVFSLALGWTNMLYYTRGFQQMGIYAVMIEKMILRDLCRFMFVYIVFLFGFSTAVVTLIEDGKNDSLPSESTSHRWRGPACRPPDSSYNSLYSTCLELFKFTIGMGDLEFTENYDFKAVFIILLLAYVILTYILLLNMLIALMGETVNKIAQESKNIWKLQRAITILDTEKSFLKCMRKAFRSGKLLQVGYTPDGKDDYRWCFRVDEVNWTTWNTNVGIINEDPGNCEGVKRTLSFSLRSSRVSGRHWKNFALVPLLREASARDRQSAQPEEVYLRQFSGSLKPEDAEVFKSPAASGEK
Sequence of VR1/TRPV1 receptor (Q8NER1 whole entry): as above

Take `CC(C(=O)NCc1ccc(C(F)(F)F)nc1Nc1ccc(F)cc1)c1ccc(NS(C)(=O)=O)c(F)c1` (stereo not drawn) [Compound 112]: the inhibition at 1 µM on VR1/TRPV1 receptor (setting [1]) came out at 26%.
As to `CC(C(=O)NCc1ccc(C(F)(F)F)nc1N1CCN(C)CC1)c1ccc(NS(C)(=O)=O)c(F)c1` (stereo not drawn) [Compound 134], the inhibition at 1 µM at VR1/TRPV1 receptor (setting [1]) was 15%.
Regarding `CC(C)OC1CCN(c2nc(C(F)(F)F)ccc2CNC(=O)C(C)c2ccc(NS(C)(=O)=O)c(F)c2)CC1` (stereo not drawn) [Compound 162], the inhibition at 0.1 µM at VR1/TRPV1 receptor (setting [2]) worked out at 31%.
For the molecule `Cc1cc(C(C)C(=O)NCc2ccc(C(F)(F)F)nc2N2CCC(C)CC2)ccc1NS(C)(=O)=O` (stereo not drawn) [Compound 196], at VR1/TRPV1 receptor (setting [2]), the inhibition at 0.01 µM turned out to be 6% and the inhibition at 0.1 µM was determined as 48%.
Regarding `CCCCCCOc1nc(C(C)(C)C)ccc1CNC(=O)C(C)c1ccc(NS(C)(=O)=O)c(F)c1` (stereo not drawn) [Compound 236], on VR1/TRPV1 receptor (setting [2]), the inhibition at 0.1 µM worked out at 2%.
On to `CC(C(=O)NCc1ccc(C(F)(F)F)cc1OC1CCCCC1)c1ccc(NS(C)(=O)=O)c(F)c1` (stereo not drawn) [Compound 238], for which the inhibition at 0.01 µM on VR1/TRPV1 receptor (setting [2]) was 3%.
On to `CC(C(=O)NCc1ccc(C(F)(F)F)cc1N1CCN(c2ccc(C(F)(F)F)cc2)CC1)c1ccc(NS(C)(=O)=O)c(F)c1` (stereo not drawn) [Compound 248], for which, on VR1/TRPV1 receptor (setting [1]), the inhibition at 1 µM stood at 63%.
Regarding `CCCCOc1nc(C(F)(F)F)ccc1CNC(=O)C(C)c1ccc(NS(C)(=O)=O)c(C)c1` (stereo not drawn) [Compound 256], on VR1/TRPV1 receptor (setting [2]), the inhibition at 0.01 µM came out at 15% and the inhibition at 0.1 µM stood at 43%.
Taken in the same sequence, the figures for `CCCCCCOc1nc(C(F)(F)F)ccc1CNC(=O)C(C)c1ccc(NS(C)(=O)=O)c(C)c1` (stereo not drawn) [Compound 257] were 11% and 63%.
For `CC(C(=O)NCc1ccc(C(F)(F)F)nc1N1CCC(CN(C)C)(c2ccccc2)CC1)c1ccc(NS(C)(=O)=O)c(F)c1` (stereo not drawn) [Compound 259], at VR1/TRPV1 receptor (setting [2]), the inhibition at 0.1 µM amounted to 0%.
As for `CC(C(=O)NCc1ccc(C(F)(F)F)nc1N1CCN(C2CCCCC2)CC1)c1ccc(NS(C)(=O)=O)c(F)c1` (stereo not drawn) [Compound 260], at VR1/TRPV1 receptor (setting [2]), the inhibition at 0.1 µM stood at 8.5%.
Take `CC(C(=O)NCc1ccc(C(F)(F)F)nc1CCC(C)(C)C)c1ccc(NS(C)(=O)=O)c(F)c1` (stereo not drawn) [Compound 263]: on VR1/TRPV1 receptor (setting [2]), the inhibition at 0.01 µM was determined as 4% and the inhibition at 0.1 µM amounted to 52%.
Taken in the same sequence, the figures for `CC1CCCN(c2nc(C(F)(F)F)ccc2CNC(=O)C(C)c2ccc(NS(C)(=O)=O)c(F)c2)C1` (stereo not drawn) [Compound 282] were 12% and 55%.
For `CC(C(=O)NCc1ccc(C(F)(F)F)nc1N1CCCCC1C)c1ccc(NS(C)(=O)=O)c(F)c1` (stereo not drawn) [Compound 283], in that order: 11% and 43%.
Consider `CC(C(=O)NCc1ccc(C(F)(F)F)cc1N1CCN(C2CCCCC2)CC1)c1ccc(NS(C)(=O)=O)c(F)c1` (stereo not drawn) [Compound 319], for which the inhibition at 1 µM at VR1/TRPV1 receptor (setting [1]) came to 4%.
Consider `COc1ccc(-c2nc(C(F)(F)F)ccc2CNC(=O)C(C)c2ccc(NS(C)(=O)=O)c(F)c2)cc1OC` (stereo not drawn) [Compound 326], for which, at VR1/TRPV1 receptor (setting [1]), the inhibition at 1 µM amounted to 8%. The inhibition at 5 µM at VR1/TRPV1 receptor (setting [2]) amounted to 32%.
As to `CCCN(CCC)c1nc(C(F)(F)F)ccc1CNC(=O)C(C)c1ccc(NS(C)(=O)=O)c(C)c1` (stereo not drawn) [Compound 331], at VR1/TRPV1 receptor (setting [2]), the inhibition at 0.1 µM came out at 18% and the inhibition at 5 µM turned out to be 22%. The inhibition at 1 µM at VR1/TRPV1 receptor (setting [1]) was 26%.
As for `CCCCC(CCCC)Oc1nc(C(F)(F)F)ccc1CNC(=O)C(C)c1ccc(NS(C)(=O)=O)c(F)c1` (stereo not drawn) [Compound 352], the inhibition at 1 µM at VR1/TRPV1 receptor (setting [1]) was 27%.
As for `CC(C)COc1nc(C(C)(C)C)ccc1CNC(=O)C(C)c1ccc(NS(C)(=O)=O)c(F)c1` (stereo not drawn) [Compound 353], the inhibition at 0.05 µM on VR1/TRPV1 receptor (@ 0.05 μM, read-out: inhibition in percent, IC50 (human) after pH stimulus) was 18%.
With `CC(C(=O)NCc1ccc(C(F)(F)F)cc1-c1cccnc1)c1ccc(NS(C)(=O)=O)c(F)c1` (stereo not drawn) [Example 46, 2-(3-fluoro-4-(methylsulfonamido)phenyl)-N-(2-(pyridin-3-yl)-4-(trifluoromethyl)benzyl)propanamide], the inhibition at 5 µM at VR1/TRPV1 receptor (setting [2]) was found to be 40%. Further, the Ki on vanilloid receptor (VR1) is 59.4 nM.
`CC(C)COc1nc(C(F)(F)F)ccc1CNC(=O)[C@@H](C)c1ccc(NS(C)(=O)=O)c(F)c1` [Example 96, (S)-2-(3-fluoro-4-methylsulfonamido-phenyl)-N-(2-isobutoxy-6-trifluoromethyl-pyridin-3-ylmethyl)-propionamide]: the IC50 against VR1/TRPV1 receptor was 30 nM. The Ki on vanilloid receptor (VR1) came to 0.5 nM.
With `CC(C)COc1nc(C(F)(F)F)ccc1CNC(=O)[C@H](C)c1ccc(NS(C)(=O)=O)c(F)c1` [Example 97, (R)-2-(3-fluoro-4-methylsulfonamido-phenyl)-N-(2-isobutoxy-6-trifluoromethyl-pyridin-3-ylmethyl)-propionamide], on VR1/TRPV1 receptor, the IC50 is 2150 nM. The Ki at vanilloid receptor (VR1) amounted to 44.5 nM.
Taken in the same sequence, the figures for `CC(C)COc1cc(C(F)(F)F)ccc1CNC(=O)C(C)c1ccc(NS(C)(=O)=O)c(F)c1` (stereo not drawn) [Example 98, 2-(3-fluoro-4-methylsulfonamido-phenyl)-N-(2-isobutoxy-4-trifluoromethyl-benzyl)-propionamide] were 41 nM and 1.5 nM.
Taken in the same sequence, the figures for `CCCCCc1nc(C(F)(F)F)ccc1CNC(=O)[C@@H](C)c1ccc(NS(C)(=O)=O)c(F)c1` [Example 144, (S)-2-(3-fluoro-4-methylsulfonamido-phenyl)-N-(2-pentyl-6-trifluoromethyl-pyridin-3-ylmethyl)-propionamide] were 146 nM and 1 nM.
As for `CCCCCc1nc(C(F)(F)F)ccc1CNC(=O)[C@H](C)c1ccc(NS(C)(=O)=O)c(F)c1` [Example 145, (R)-2-(3-fluoro-4-methylsulfonamido-phenyl)-N-(2-pentyl-6-trifluoromethyl-pyridin-3-ylmethyl)-propionamide], at VR1/TRPV1 receptor (@ 10 μM, read-out: inhibition in percent, IC50 (human) after pH stimulus), the inhibition at 10 µM is 49%. Besides, on vanilloid receptor (VR1), the Ki worked out at 78 nM.
For `CC(C(=O)NCc1c(CO)cc(C(C)(C)C)nc1OC1CCCC1)c1ccc(NS(C)(=O)=O)c(F)c1` (stereo not drawn) [Example 261, N-(6-tert-butyl-2-cyclopentyloxy-4-hydroxymethyl-pyridin-3-ylmethyl)-2-(3-fluoro-4-methylsulfonamido-phenyl)-propionamide], the “inhibition in percent, IC50 (human) after pH stimulus” value on VR1/TRPV1 receptor (@ 1 μM, ne = no effect) is given as “ne @ 1 μM”.
For `CC(C(=O)NCc1ccc(C(F)(F)F)cc1-c1cccc(Cl)c1)c1ccc(NS(C)(=O)=O)c(F)c1` (stereo not drawn) [Example 322, N-(3′-chloro-5-trifluoromethyl-biphenyl-2-ylmethyl)-2-(3-fluoro-4 methylsulfonamido-phenyl)-propionamide], the inhibition at 0.1 µM at VR1/TRPV1 receptor (setting [2]) is 25%. For the same molecule, the inhibition at 1 µM at VR1/TRPV1 receptor (setting [1]) came to 54%.
On to `CC(C(=O)NCc1ccc(C(F)(F)F)cc1-c1ccc(F)c(Cl)c1)c1ccc(NS(C)(=O)=O)c(F)c1` (stereo not drawn) [Example 324, N-(3′-chloro-4′-fluoro-5-trifluoromethyl-biphenyl-2-ylmethyl)-2-(3-fluoro-4-methylsulfonamido-phenyl)-propionamide], for which the IC50 at VR1/TRPV1 receptor was 33 nM.
Turning to `CCC(C(=O)NCc1ccc(C(F)(F)F)nc1N1CCC(C)CC1)c1ccc(NS(C)(=O)=O)c(F)c1` (stereo not drawn) [Example 347, 2-(3-fluoro-4-methylsulfonamido-phenyl)-N-(4-methyl-6′-trifluoromethyl-3,4,5,6-tetrahydro-2H-[1,2′]bipyridinyl-3′-ylmethyl)-butyramide], the Ki at vanilloid receptor (VR1) was found to be 1.6 nM.
Turning to `CCOC(=O)c1cc(CNC(=O)C(C)c2ccc(NS(C)(=O)=O)c(F)c2)c(N2CCC(C)CC2)cc1C(F)(F)F` (stereo not drawn) [Example 351, 5-{[2-(3-fluoro-4-methylsulfonamido-phenyl)-propionylamino]-methyl}-4-(4-methyl-piperidin-1-yl)-2-trifluoromethyl-benzoic acid ethyl ester], the Ki at vanilloid receptor (VR1) is 44 nM.
Consider `CCCCCOc1nc(C(F)(F)F)ccc1CNC(=O)C(C)c1ccc(NS(C)(=O)=O)c(F)c1` (stereo not drawn) [Example 375, 2-(3-fluoro-4-(methylsulfonamido)phenyl)-N-((2-(pentyloxy)-6-(trifluoromethyl)pyridin-3-yl)methyl)propanamide], for which the 50% inhibitory concentration (IC50) against VR1/TRPV1 receptor was determined as 30 nM.
For `CC1CC(C)CC(Oc2nc(C(F)(F)F)ccc2CNC(=O)C(C)c2ccc(NS(C)(=O)=O)c(F)c2)C1` (stereo not drawn) [Example 377, N-((2-(3,5-dimethylcyclohexyloxy)-6-(trifluoromethyl)pyridin-3-yl)methyl)-2-(3-fluoro-4-(methylsulfonamido)phenyl)propanamide], at vanilloid receptor (VR1), the inhibitory constant (Ki) is 3 nM.
